Values quoted from earlier work in patent US20060247361A1, “Polar functionalized polymer modified porous substrate for solid phase extraction” (priority 2005, published 2006).
Structures can show the parent of a compound that is named as a salt.

Row | SMILES | Log P
1 | CN(C)CCC(c1ccc(Cl)cc1)c1ccccn1 (stereo not shown) [Chlorpheniramine maleate] | 3.38
2 | NCCC(Oc1ccc(C(F)(F)F)cc1)c1ccccc1 (stereo not shown) [Norfluoxetine] | 3.75
3 | CNCCC=C1c2ccccc2CCc2ccccc21 [Nortriptyline] | 4.74
4 | CN(C)CCC(c1ccc(Br)cc1)c1ccccn1 (stereo not shown) [Brompheniramine] | 3.89
5 | CN1CCN2c3ccccc3Cc3ccccc3C2C1 (stereo not shown) [Mianserin] | 3.85
6 | CC(C)(C)NC[C@H](O)COc1nsnc1N1CCOCC1 [Timolol maleate] | 1.83
7 | CC(C)(C)NCC(O)c1ccc(O)c(CO)c1 (stereo not shown) [Salbutamol] | 0.97
